Like-named read-outs stand apart in the source and are kept apart here.
Key:
Type in all cases: cell-based
[1] = tested on: NCI-H358 cells (KRAS G12C mutation); assay: Proliferation inhibition measured by CTG (CellTiter Glo), NCI-H358; conditions: Homo sapiens
Text: (§1) NCI-H358 is a human non-small cell lung cancer cell line with KRAS G12C mutation; PANC-1 and AsPC-1 are pancreatic cancer cell lines with KRAS G12D mutation; AGS is a gastric cancer cell line with KRAS G12D mutation; A427 is a lung cancer cell line with KRAS G12D mutation; THP-1 is a leukemia cell line with NRAS G12D mutation; Hs 578T is a breast cancer cell line with HRAS G12D mutation; SW480 is a colon cancer cell lines with KRAS G12V mutation; A375 is a wild type malignant melanoma cell line. The proliferation inhibitory effect of the compounds on various mutations was evaluated by determining the proliferation inhibitory activity of the compounds on these cell lines.
(§2) The assay was conducted on either 384-well plates or 96-well plates. The procedures are as follows:
(§3) The cell suspensions were added to 384- or 96-well plates (384-well plate: 40 μL; 96-well plate: […]) except for peripheral wells. The plates were incubated in a carbon dioxide incubator overnight. Prepared compounds (10 concentration gradients by serial 3-fold dilution) were added to the wells. The cell plates were incubated in a carbon dioxide incubator for 120 hours. CellTiter Glo reagent (384 well plate: 25 μL; 96 well plate: 100 μL) was added to the 384- or 96-well plates. The plates were shaken for 10 minutes away from light, and incubated for 10 minutes. The plates were read by EnVision system. Inhibition curves were plotted using XLFit and IC50 values were calculated. “IC50>10 μM” is denoted by “*”, “10 μM≥IC50>1 μM” is denoted by “**”, “1 μM≥IC50>100 nM” is denoted by “***”, and “IC50≤100 nM” is denoted by “****”.

[2] = tested on: AsPC-1 pancreatic cancer cell line (KRAS G12D mutation); assay: Proliferation inhibition measured by CTG (CellTiter Glo), AsPC-1; conditions: Homo sapiens, ASPC1
Text: as §1, §2, §3

[3] = tested on: A375 wild type malignant melanoma cell line; assay: Proliferation inhibition measured by CTG (CellTiter Glo), A375; conditions: Homo sapiens, A-375
Text: as §1, §2, §3

[4] = tested on: AGS gastric cancer cell line (KRAS G12D mutation); assay: Proliferation inhibition measured by CTG (CellTiter Glo), AGS; conditions: CTG, 120 hours incubation
Text: as §1, §2, §3

[5] = tested on: Hs 578T breast cancer cell line (HRAS G12D mutation); assay: Proliferation inhibition measured by CTG (CellTiter Glo), Hs 578T; conditions: Homo sapiens, Table 1, CTG, 120 hours incubation, class symbol
Text: as §1, §2, §3

[6] = tested on: THP-1 leukemia cell line (NRAS G12D mutation); assay: Proliferation inhibition measured by CTG (CellTiter Glo), THP-1; conditions: Homo sapiens, Table 1, CTG, 120 hours incubation, class symbol
Text: as §1, §2, §3

[7] = tested on: SW480 colon cancer cell line (KRAS G12V mutation); assay: Proliferation inhibition measured by CTG (CellTiter Glo), SW480; conditions: Homo sapiens, Table 3, 120 hours incubation, class symbol, read-out: IC50 (SW480)
Text: as §1, §2, §3

[8] = Table 1, CTG, 120 hours incubation, class symbol, read-out: IC50 (H358)
[9] = Table 1, CTG, 120 hours incubation, class symbol
[10] = Table 1, CTG, 120 hours incubation, class symbol, read-out: IC50 (A375)
[11] = Table 1, class symbol, read-out: IC50 (AGS)
[12] = Table 3, CTG, 120 hours incubation, class symbol, read-out: IC50 (H358)
[13] = Table 3, class symbol, read-out: IC50 (AGS)
[14] = Table 3, CTG, 120 hours incubation, class symbol, read-out: IC50 (A375)

Compound	IC50 [1, 8] [µM]	IC50 [2, 9] [µM]	IC50 [3, 10] [µM]	IC50 [4, 11] [nM]	IC50 [5] [nM]	IC50 [6] [nM]	IC50 [1, 12] [µM]	IC50 [4, 13] [nM]	IC50 [3, 14] [µM]	IC50 [7] [nM]	also measured
CN1CCC[C@H]1COc1nc2c(c(N3CCc4cnoc4C3)n1)CCN(c1cccc3cccc(Cl)c13)C2 [Comparative compound 1′, reference compound]	> 10	> 10	> 10	–	–	–	–	–	–	–	IC50 ([1]; Table 1, number in parentheses, no unit printed in Table 1 (Table 2 gives the same values of compound 2 in μM), read-out: IC50 (H358)): 17.2 µM; IC50 ([2]; Table 1, number in parentheses, unit not given in Table 1 (legend and Table 2 use μM)): 39.7 µM; IC50 ([3]; Table 1, number in parentheses, unit not given in Table 1 (Table 2 gives the same value in μM), read-out: IC50 (A375)): 22.7 µM
CN1CCC[C@H]1COc1nc2c(c(N3CCn4cncc4C3)n1)CO[C@H](c1cccc3cccc(Cl)c13)C2 [Compound 3]	0.1 to 1	1 to 10	1 to 10	–	–	–	–	–	–	–	–
Cc1ncc2n1CCN(c1nc(OC[C@@H]3CCCN3C)nc3c1CCN(c1cccc4cccc(Cl)c14)C3)C2 [Compound 5]	1 to 10	1 to 10	1 to 10	–	–	–	–	–	–	–	–
CN1CCC[C@@H]1COc1nc2c(c(N3CCn4cncc4C3)n1)CCN(c1cccc3cccc(Cl)c13)C2 [Compound 18]	≤ 0.1	0.1 to 1	0.1 to 1	≤ 100	100 to 1000	100 to 1000	–	–	–	–	–
CN1CCC(Oc2nc3c(c(N4CCn5cncc5C4)n2)CCN(c2cccc4cccc(Cl)c24)C3)CC1 [Compound 20]	0.1 to 1	1 to 10	1 to 10	100 to 1000	1000 to 10000	100 to 1000	–	–	–	–	–
CN(C)CCCOc1nc2c(c(N3CCn4cncc4C3)n1)CCN(c1cccc3cccc(Cl)c13)C2 [Compound 21]	≤ 0.1	0.1 to 1	0.1 to 1	≤ 100	100 to 1000	100 to 1000	–	–	–	–	–
CC1Cn2cncc2CN1c1nc(OC[C@@H]2CCCN2C)nc2c1CCN(c1cccc3cccc(Cl)c13)C2 (stereo partly drawn) [Compound 22]	≤ 0.1	≤ 0.1	≤ 0.1	≤ 100	100 to 1000	≤ 100	–	–	–	–	IC50 ([1]; Table 2, CTG, 120 hours incubation, read-out: IC50 H358 (G12C)): 0.073 µM; IC50 ([4]; Table 2, read-out: IC50 AGS (G12D)): 54 nM; IC50 ([3]; Table 2, CTG, 120 hours incubation, read-out: IC50 A375 (wide type)): 0.096 µM
COC1CN(c2nc(OC[C@@H]3CCCN3C)nc3c2CCN(c2cccc4cccc(Cl)c24)C3)Cc2cncn21 (stereo partly drawn) [Compound 23]	0.1 to 1	0.1 to 1	0.1 to 1	100 to 1000	1000 to 10000	100 to 1000	–	–	–	–	–
Clc1cccc2cccc(N3CCc4c(nc(OCC56CCCN5CCC6)nc4N4CCn5cncc5C4)C3)c12 [Compound 24]	0.1 to 1	1 to 10	0.1 to 1	1000 to 10000	> 10000	100 to 1000	–	–	–	–	–
CN1CCO[C@H](COc2nc3c(c(N4CCn5cncc5C4)n2)CCN(c2cccc4cccc(Cl)c24)C3)C1 [Compound 27]	0.1 to 1	0.1 to 1	1 to 10	100 to 1000	1000 to 10000	100 to 1000	–	–	–	–	–
CN1CC[C@@H](COc2nc3c(c(N4CCn5cncc5C4)n2)CCN(c2cccc4cccc(Cl)c24)C3)C1 [Compound 28]	0.1 to 1	0.1 to 1	0.1 to 1	100 to 1000	1000 to 10000	100 to 1000	–	–	–	–	–
CC(CN(C)C)Oc1nc2c(c(N3CCn4cncc4C3)n1)CCN(c1cccc3cccc(Cl)c13)C2 (stereo not drawn) [Compound 29]	≤ 0.1	≤ 0.1	0.1 to 1	≤ 100	100 to 1000	100 to 1000	–	–	–	–	–
CN1CCC[C@H]1COc1nc2c(c(N3CCn4cnc(-c5ccccc5)c4C3)n1)CCN(c1cccc3cccc(Cl)c13)C2 [Compound 30]	0.1 to 1	0.1 to 1	0.1 to 1	100 to 1000	1000 to 10000	100 to 1000	–	–	–	–	–
Clc1cccc2cccc(N3CCc4c(nc(OCCN5CCCCC5)nc4N4CCn5cncc5C4)C3)c12 [Compound 31]	0.1 to 1	0.1 to 1	1 to 10	100 to 1000	1000 to 10000	100 to 1000	–	–	–	–	–
Cc1cccc(N)c1C(=O)Oc1cc(N2CCc3c(nc(OC[C@@H]4CCCN4C)nc3N3Cc4c(F)ncn4C[C@H]3C)C2)c2c(Cl)cccc2c1 [Compound 102]	–	–	–	–	–	–	≤ 0.1	≤ 100	≤ 0.1	≤ 100	–
CCc1ccc(NC(=O)Oc2cc(N3CCc4c(nc(OC[C@@H]5CCCN5C)nc4N4Cc5c(F)ncn5C[C@H]4C)C3)c3c(Cl)cccc3c2)cc1 [Compound 103]	–	–	–	–	–	–	≤ 0.1	≤ 100	≤ 0.1	≤ 100	–
C[C@@H]1Cn2cnc(F)c2CN1c1nc(OC[C@@H]2CCCN2C)nc2c1CO[C@H](c1cccc3cccc(Cl)c13)C2 [Compound 104]	–	–	–	–	–	–	0.1 to 1	100 to 1000	0.1 to 1	100 to 1000	–
C[C@@H]1Cn2cnc(F)c2CN1c1nc(OC[C@@H]2CCCN2C)nc2c1CCN(c1cc(O)c(Cl)c3cccc(Cl)c13)C2 [Compound 105]	–	–	–	–	–	–	≤ 0.1	≤ 100	≤ 0.1	≤ 100	–
C[C@@H]1Cn2cnc(F)c2CN1c1nc(OC[C@@H]2CCCN2C)nc2c1CCN(c1cccc3cccc(F)c13)C2 [Compound 106]	–	–	–	–	–	–	≤ 0.1	≤ 100	≤ 0.1	≤ 100	–
CC[C@@H]1Cn2cncc2CN1c1nc(OC[C@@H]2CCCN2C)nc2c1CCN(c1cccc3cccc(Cl)c13)C2 [Compound 107]	–	–	–	–	–	–	≤ 0.1	≤ 100	≤ 0.1	≤ 100	–
C#Cc1c(F)ccc2cc(O)cc(N3CCc4c(nc(OC[C@@H]5CCCN5C)nc4N4Cc5c(F)ncn5C[C@H]4C)C3)c12 [Compound 108]	–	–	–	–	–	–	0.1 to 1	≤ 100	0.1 to 1	≤ 100	–
C[C@@H]1Cn2cnc(F)c2CN1c1nc(OC[C@@H]2CCCN2C)nc2c1CCN(c1cc(NC(=O)OC(C)(C)C)cc3cccc(Cl)c13)C2 [Compound 109]	–	–	–	–	–	–	1 to 10	100 to 1000	1 to 10	100 to 1000	–
C[C@@H]1Cn2cnc(F)c2CN1c1nc(OC[C@@H]2CCCN2C)nc2c1CCN(c1cc(N)cc3cccc(Cl)c13)C2 [Compound 110]	–	–	–	–	–	–	≤ 0.1	≤ 100	≤ 0.1	≤ 100	–
CC(=O)Nc1cc(N2CCc3c(nc(OC[C@@H]4CCCN4C)nc3N3Cc4c(F)ncn4C[C@H]3C)C2)c2c(Cl)cccc2c1 [Compound 111]	–	–	–	–	–	–	1 to 10	1000 to 10000	1 to 10	100 to 1000	–
C[C@@H]1Cn2cnc(F)c2CN1c1nc(OC[C@@H]2CCCN2C)nc2c1CCN(c1cc(NS(C)(=O)=O)cc3cccc(Cl)c13)C2 [Compound 112]	–	–	–	–	–	–	1 to 10	100 to 1000	1 to 10	100 to 1000	–
C[C@@H]1Cn2cnc(F)c2CN1c1nc(OC[C@@H]2CCCCN2C)nc2c1CCN(c1cccc3cccc(F)c13)C2 [Compound 113]	–	–	–	–	–	–	≤ 0.1	≤ 100	≤ 0.1	≤ 100	–
C[C@@H]1Cn2cnc(F)c2CN1c1nc(OC[C@@H]2CCCCN2C)nc2c1CCN(c1cc(F)cc3cccc(Cl)c13)C2 [Compound 115]	–	–	–	–	–	–	≤ 0.1	≤ 100	≤ 0.1	≤ 100	–
C[C@@H]1Cn2cnc(F)c2CN1c1nc(OC[C@@H]2CCCN2C)nc2c1CCN(c1cc(F)cc3cccc(Cl)c13)C2 [Compound 117]	–	–	–	–	–	–	≤ 0.1	≤ 100	≤ 0.1	≤ 100	–
CC1Cc2[nH]ncc2CN1c1nc(OC[C@@H]2CCCN2C)nc2c1CCN(c1cccc3cccc(Cl)c13)C2 (stereo partly drawn) [Compound 118]	–	–	–	–	–	–	0.1 to 1	≤ 100	0.1 to 1	≤ 100	–

— patent publication US20230391785A1, “NITROGEN-CONTAINING HETEROCYCLIC COMPOUND, METHOD FOR PREPARING SAME AND USE OF SAME” (280 Bio, Inc., priority 2021, published 2023)
